From ChEMBL document CHEMBL1154779, “Synthesis and adrenolytic activity of 1-(1H-indol-4-yloxy)-3-(2-(2-methoxy phenoxy)ethylamino)propan-2-ol analogs and its enantiomers. Part 2” (Eur J Med Chem, 2009)
Each block holds one molecule with its values, some of them ahead of it. Calls of active or inactive are those of the source. No cut-off for these calls is given here.

Columns and labels:
Rattus norvegicus [1] = test: Hypotensive activity in normotensive Wistar rat assessed as decrease in systolic blood pressure at 0.0625 mg/kg, iv up to 60 mins; assay type: functional, organism-based; design: dose 0.0625 mg/kg; details: Artery
Oryctolagus cuniculus [2] = species: Oryctolagus cuniculus; test: (§1) Spasmolytic activity in rabbit ileum assessed as decrease in amplitude of contraction at 10 uM measured for 5 mins; assay type: functional
Rattus norvegicus [3] = test: Hypotensive activity in normotensive Wistar rat assessed as decrease in diastolic blood pressure at 0.0625 mg/kg, iv up to 60 mins; assay type: functional, organism-based; design: dose 0.0625 mg/kg; details: Artery
Oryctolagus cuniculus [4] = species: Oryctolagus cuniculus; test: (§2) Spasmolytic activity in rabbit ileum assessed as decrease in amplitude of contraction at 100 uM measured for 5 mins; assay type: functional
Rattus norvegicus [5] = test: Hypotensive activity in normotensive Wistar rat assessed as decrease in diastolic blood pressure at 1 to 5 mg/kg, iv up to 60 mins; assay type: functional, organism-based; details: Artery
Rattus norvegicus [6] = test: Hypotensive activity in normotensive Wistar rat assessed as decrease in systolic blood pressure at 0.125 to 1 mg/kg, iv up to 60 mins; assay type: functional, organism-based; details: Artery
[7] = molecular target: T1, Adrenergic receptor alpha-1 (Rattus norvegicus, UniProt P15823+P23944+P43140); test: Displacement of [3H]Prazosin from alpha1 adrenergic receptor in Wistar rat cerebral cortex membrane by liquid scintillation counting; assay type: tissue-based
T1 sequence (P15823 whole entry): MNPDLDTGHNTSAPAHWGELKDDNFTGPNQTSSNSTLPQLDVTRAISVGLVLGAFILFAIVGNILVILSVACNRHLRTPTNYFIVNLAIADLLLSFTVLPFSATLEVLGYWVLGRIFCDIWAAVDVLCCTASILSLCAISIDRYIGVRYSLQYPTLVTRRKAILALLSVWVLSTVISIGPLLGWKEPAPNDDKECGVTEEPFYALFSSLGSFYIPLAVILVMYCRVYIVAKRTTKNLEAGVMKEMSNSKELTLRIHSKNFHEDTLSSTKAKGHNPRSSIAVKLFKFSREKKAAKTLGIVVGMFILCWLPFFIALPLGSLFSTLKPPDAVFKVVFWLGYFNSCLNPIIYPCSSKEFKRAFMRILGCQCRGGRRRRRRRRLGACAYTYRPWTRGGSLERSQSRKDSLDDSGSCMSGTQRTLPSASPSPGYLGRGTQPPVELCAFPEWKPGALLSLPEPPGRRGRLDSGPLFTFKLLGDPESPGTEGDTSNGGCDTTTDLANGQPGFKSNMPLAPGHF
T1 sequence (P23944 whole entry): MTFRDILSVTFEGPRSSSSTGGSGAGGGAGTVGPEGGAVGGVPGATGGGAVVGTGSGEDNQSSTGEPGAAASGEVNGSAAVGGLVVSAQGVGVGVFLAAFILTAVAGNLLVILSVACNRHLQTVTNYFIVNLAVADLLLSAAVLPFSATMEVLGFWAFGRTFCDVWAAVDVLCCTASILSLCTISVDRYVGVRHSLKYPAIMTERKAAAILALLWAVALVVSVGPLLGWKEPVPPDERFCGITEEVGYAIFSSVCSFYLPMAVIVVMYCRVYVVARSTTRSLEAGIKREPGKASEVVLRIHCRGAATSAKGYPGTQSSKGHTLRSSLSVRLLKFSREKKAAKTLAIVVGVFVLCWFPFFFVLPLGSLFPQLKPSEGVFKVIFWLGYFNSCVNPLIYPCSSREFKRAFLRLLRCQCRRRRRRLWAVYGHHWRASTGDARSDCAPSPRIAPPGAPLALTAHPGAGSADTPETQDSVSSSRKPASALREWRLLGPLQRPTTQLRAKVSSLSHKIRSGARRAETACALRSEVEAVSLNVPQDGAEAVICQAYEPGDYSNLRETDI
T1 sequence (P43140 whole entry): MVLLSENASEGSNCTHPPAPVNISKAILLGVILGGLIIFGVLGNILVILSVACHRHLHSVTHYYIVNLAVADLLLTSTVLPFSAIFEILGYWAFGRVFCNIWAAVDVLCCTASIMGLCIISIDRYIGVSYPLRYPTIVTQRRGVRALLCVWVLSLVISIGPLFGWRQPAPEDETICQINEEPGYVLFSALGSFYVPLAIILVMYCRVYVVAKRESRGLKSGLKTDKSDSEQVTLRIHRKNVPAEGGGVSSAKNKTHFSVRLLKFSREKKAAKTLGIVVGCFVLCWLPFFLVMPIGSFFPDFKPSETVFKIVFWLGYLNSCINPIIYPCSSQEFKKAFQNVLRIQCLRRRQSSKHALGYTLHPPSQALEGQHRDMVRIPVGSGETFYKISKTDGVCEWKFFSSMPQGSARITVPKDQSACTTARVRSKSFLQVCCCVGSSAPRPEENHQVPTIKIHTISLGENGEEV

Rattus norvegicus [8] = test: Hypotensive activity in normotensive Wistar rat assessed as decrease in systolic blood pressure at 0.125 mg/kg, iv up to 60 mins; assay type: functional, organism-based; design: dose 0.125 mg/kg; details: Artery
[9] = as §1; assay type: functional, Oryctolagus cuniculus; design: scale not given: the % may be the effect or the level left
Rattus norvegicus [10] = test: Hypotensive activity in normotensive Wistar rat assessed as decrease in diastolic blood pressure at 0.25 to 1 mg/kg, iv up to 60 mins; assay type: functional, Artery; design: scale not given: the % may be the effect or the level left; details: dose mg/kg 0.25-1
Rattus norvegicus [11] = test: Effect on heart rate in anesthetized Wistar rat assessed as decrease in heart rate at 1 mg/kg, iv up to 15mins by electrocardiography; assay type: functional; design: scale not given: the % may be the effect or the level left
Rattus norvegicus [12] = test: Hypotensive activity in normotensive Wistar rat assessed as decrease in diastolic blood pressure at 0.125 mg/kg, iv up to 60 mins; assay type: functional, organism-based; design: dose 0.125 mg/kg; details: Artery
[13] = as §2; assay type: functional, Oryctolagus cuniculus; design: scale not given: the % may be the effect or the level left
Rattus norvegicus [14] = test: Hypotensive activity in normotensive Wistar rat assessed as decrease in systolic blood pressure at 0.25 to 1 mg/kg, iv up to 60 mins; assay type: functional; design: scale not given: the % may be the effect or the level left; details: dose mg/kg 0.25-1
Rattus norvegicus [15] = test: Hypotensive activity in normotensive Wistar rat assessed as decrease in diastolic blood pressure at 0.0312 mg/kg, iv up to 60 mins; assay type: functional, organism-based; design: dose 0.0312 mg/kg; details: Artery
Rattus norvegicus [16] = test: Hypotensive activity in normotensive Wistar rat assessed as decrease in systolic blood pressure at 0.0312 mg/kg, iv up to 60 mins; assay type: functional, organism-based; design: dose 0.0312 mg/kg; details: Artery
Rattus norvegicus [17] = test: Hypotensive activity in normotensive Wistar rat assessed as decrease in systolic blood pressure at 0.125 mg/kg, iv up to 30 mins; assay type: functional, organism-based; design: dose 0.125 mg/kg; details: Artery
Rattus norvegicus [18] = test: Hypotensive activity in normotensive Wistar rat assessed as decrease in diastolic blood pressure at 0.125 mg/kg, iv up to 10 mins; assay type: functional, organism-based; design: dose 0.125 mg/kg; details: Artery

Ki [7]: 11.3 nM
SMILES: COc1ccccc1OCCNC[C@H](O)COc1c(OC)ccc2[nH]ccc12
Activity (Oryctolagus cuniculus [2]): Active | Activity (Rattus norvegicus [15]): inactive | Activity (Oryctolagus cuniculus [4]): Active | Activity (Rattus norvegicus [5]): Active | Activity (Rattus norvegicus [6]): Active | Activity (Rattus norvegicus [16]): inactive

Ki [7]: 21.1 nM
SMILES: COc1ccccc1OCCNCC(O)COc1c(OC)ccc2[nH]ccc12 (racemic)
Activity (Rattus norvegicus [17]): Active | Activity (Oryctolagus cuniculus [2]): inactive | Activity (Rattus norvegicus [18]): Active | Activity (Rattus norvegicus [10]): 8% | Activity (Oryctolagus cuniculus [4]): Active | Activity (Rattus norvegicus [5]): Active | Activity (Rattus norvegicus [6]): Active | Activity (Rattus norvegicus [14]): 7%

The next lines start with the molecule.

SMILES: COc1ccccc1OCCNC[C@@H](O)COc1c(OC)ccc2[nH]ccc12
Activity (Rattus norvegicus [1]): inactive | Activity (Oryctolagus cuniculus [2]): Active | Activity (Rattus norvegicus [3]): inactive | Activity (Oryctolagus cuniculus [4]): Active | Activity (Rattus norvegicus [5]): Active | Activity (Rattus norvegicus [6]): Active | Ki [7]: 45.8 nM

SMILES: COc1ccccc1OCCNC[C@H](O)COc1ccc(OC)c2[nH]ccc12
Activity (Rattus norvegicus [8]): inactive | Activity [9]: 10% | Activity (Rattus norvegicus [10]): 13% | Activity (Rattus norvegicus [11]): 10% | Activity (Rattus norvegicus [12]): inactive | Activity [13]: 10% | Activity (Rattus norvegicus [14]): 12% | Ki [7]: 168.8 nM

SMILES: COc1ccccc1OCCNCC(O)COc1ccc(OC)c2[nH]ccc12 (racemic)
Activity (Rattus norvegicus [8]): inactive | Activity [9]: 10% | Activity (Oryctolagus cuniculus [2]): inactive | Activity (Rattus norvegicus [10]): 13% | Activity (Rattus norvegicus [11]): 10% | Activity (Rattus norvegicus [12]): inactive | Activity [13]: 10% | Activity (Oryctolagus cuniculus [4]): inactive | Activity (Rattus norvegicus [14]): 12% | Ki [7]: 75.8 nM

SMILES: COc1ccccc1OCCNC[C@@H](O)COc1ccc(OC)c2[nH]ccc12
Activity (Rattus norvegicus [8]): inactive | Activity (Rattus norvegicus [10]): 13% | Activity (Rattus norvegicus [11]): 10% | Activity (Rattus norvegicus [12]): inactive | Activity (Rattus norvegicus [14]): 12% | Ki [7]: 60.9 nM
